What was measured:
[1] = tested on: breast cancer cells (MDA MB 231, SKBr3); assay: mode of cell death: Annexin V binding, DNA fragmentation; type: cell-based, human
Description: (§1) 1. Induction of the loss of the mitochondrial transmembrane potential (MTP). […] 2. Induction of reactive oxygen species (ROS). […] 3. […] 4. Compounds were tested for induction of DNA damage using test known as comet assay that allows detection of DNA damage in individual cells. […] 6. The mode of cell death (i.e., apoptosis versus necrosis) was studied using several criteria: conversion of cells to positivity for binding Annexin V; DNA fragmentation (characteristic of apoptotic death) and decrease in cellular ATP levels (commonly observed during necrotic death) (FIG. 5). 1. Induction of the loss of the mitochondrial transmembrane potential (MTP). […] 2. Induction of reactive oxygen species (ROS). […] 3. […] 4. Compounds were tested for induction of DNA damage using test known as comet assay that allows detection of DNA damage in individual cells. […] 6. The mode of cell death (i.e., apoptosis versus necrosis) was studied using several criteria: conversion of cells to positivity for binding Annexin V; DNA fragmentation (characteristic of apoptotic death) and decrease in cellular ATP levels (commonly observed during necrotic death) (FIG. 5).

[2] = tested on: breast cancer cells (MDA MB 231, SKBr3); assay: DNA damage, comet assay; type: cell-based, human
Description: as §1

[3] = tested on: breast cancer cells (MDA MB 231, SKBr3); assay: induction of ROS, CM-H2DCFDA staining; type: cell-based, human
Description: as §1
DCFDA is nonfluorescent in reduced form and is readily membrane-permeant. Cellular esterases cleave its acetate groups. The thiol-reactive chloromethyl group then binds to cellular thiols, trapping the dye inside the cell, where oxidation converts it to the fluorescent form. […] It is relatively insensitive to oxidation by superoxide.
FIG. 1. […] The indicated compounds were added to cells at 20 μg/ml growth medium, followed by addition of 10 μM CM-H2 DCFDA. Inhibitor of mitochondrial respiration, NaN3, was added at 10 mM. After 30 minute incubation, cells were washed in PBS and analyzed on FACScan for fluorescence.

[4] = tested on: two different breast cancer cell lines; assay: induction of ROS (fold), compounds alone and in combination; type: cell-based; conditions: Table 11
Description: In order to better understand the combined activities of the isolated species, several flavanones and flavones isolated from Scutellaria barbata were tested individually and in combination. The flavanones and flavones tested are depicted in FIG. 8. These compounds 1-8 from were tested for induction of ROS, DNA damage and cell death, as described in Example 2.
The results set forth in Tables 10 and 11 were confirmed by performing the experiments in two different breast cancer cell lines.

[5] = tested on: breast cancer cells (MDA MB 231, SKBr3); assay: cellular ATP levels, ATP bioluminescence; type: cell-based, human
Description: as §1

[6] = tested on: breast cancer cells (MDA MB 231, SKBr3); assay: mitochondrially derived superoxide, MitoSOX staining; type: cell-based, human
Description: as §1

Compound | cell death and its mode [1] | induction of DNA damage [2] | induction of cellular ROS [3] | Induction of ROS (fold) [4] [fold] | cellular ATP levels [5] | generation of mitochondrial superoxide [6]
O=c1cc(-c2ccc(O)cc2)oc2c(O)c(O)cc(O)c12 [Isoscutellarein] | cell death that has hallmarks of programmed necrosis | induce DNA damage | induce ROS, but of extra-mitochondrial origin |  |  | 
O=c1cc(-c2ccc(O)cc2)oc2cc(O)cc(O)c12 [cmpd 4] |  |  |  | 0.6 |  | 
O=C1CC(c2ccc(O)cc2)Oc2cc(O)c(O)c(O)c21 (stereo not drawn) [Carthamidin] |  | induce DNA damage | induce ROS, but of extra-mitochondrial origin |  |  | 
O=c1cc(-c2ccc(O)cc2)oc2cc(O)cc(O)c12 [Apigenin] | induce significant cell death characterized as apoptotic | do not induce DNA damage |  |  | slight but consistent increase in ATP levels | induce generation of superoxide whose origin is identified as mitochondrial
O=c1cc(-c2ccc(O)cc2)oc2cc(O)c(O)c(O)c12 [Scutellarein] | cell death that has hallmarks of programmed necrosis | induce DNA damage | induce ROS, but of extra-mitochondrial origin |  |  | 
O=C1CC(c2ccc(O)cc2)Oc2c(O)c(O)cc(O)c21 (stereo not drawn) [Isocarthamidin] |  | induce DNA damage | induce ROS, but of extra-mitochondrial origin |  |  | 
